Article PMC7088215 (The Protein Journal, 2015)

Experiments:
[1] = target: T1, SaPriA (PriA helicase) (Staphylococcus aureus, UniProt Q2G266); experiment: intrinsic fluorescence quenching titration of purified SaPriA; type: binding
T1 sequence (Q2G266 1-802): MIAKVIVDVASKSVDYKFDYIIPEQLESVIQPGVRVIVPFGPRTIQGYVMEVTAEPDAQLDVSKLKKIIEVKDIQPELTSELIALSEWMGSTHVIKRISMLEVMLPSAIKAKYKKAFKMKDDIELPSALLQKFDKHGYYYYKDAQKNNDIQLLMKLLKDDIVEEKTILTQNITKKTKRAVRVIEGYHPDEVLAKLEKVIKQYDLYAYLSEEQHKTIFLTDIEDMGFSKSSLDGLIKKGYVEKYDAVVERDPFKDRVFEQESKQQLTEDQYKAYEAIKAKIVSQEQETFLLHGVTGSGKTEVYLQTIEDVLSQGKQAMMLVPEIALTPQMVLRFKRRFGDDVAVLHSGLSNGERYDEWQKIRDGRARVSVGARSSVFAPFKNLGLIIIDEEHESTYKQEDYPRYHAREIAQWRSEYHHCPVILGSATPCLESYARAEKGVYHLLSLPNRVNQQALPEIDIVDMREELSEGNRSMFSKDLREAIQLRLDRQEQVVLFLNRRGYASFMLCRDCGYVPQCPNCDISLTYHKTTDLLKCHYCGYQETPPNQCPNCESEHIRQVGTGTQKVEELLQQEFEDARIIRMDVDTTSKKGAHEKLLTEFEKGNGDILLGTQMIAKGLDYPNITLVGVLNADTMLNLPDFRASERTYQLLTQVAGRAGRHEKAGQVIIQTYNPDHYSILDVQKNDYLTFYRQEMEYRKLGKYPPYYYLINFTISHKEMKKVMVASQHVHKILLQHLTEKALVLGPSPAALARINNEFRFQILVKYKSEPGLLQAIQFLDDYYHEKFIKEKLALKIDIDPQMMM

[2] = target: T1, SaPriA (PriA helicase); experiment: vanadate-sensitive colorimetric ATPase assay, single concentration of […]; type: biochemical; conditions: read-out: %

Row | Kd [1] [µM] | activity at 35 µM [2] [%] | Compound
1 | 9.1 ± 3.2 | – | O=c1c(O)c(-c2ccc(O)cc2)oc2cc(O)cc(O)c12 [kaempferol]
2 | – | 69 | O=c1c(O)c(-c2cc(O)c(O)c(O)c2)oc2cc(O)cc(O)c12 [myricetin]
